Experimental data reported in US6811998B2, “Conjugates of uncompetitive inhibitors of inosine monophosphate dehydrogenase” (priority 1999, dated 2004).

Key:
[1] = target: T1, IMPDH II (Homo sapiens, UniProt P12268); assay: Inhibition constants of ligand inhibitors: NADH formation at 340 nm, 10 minutes, 40° C.; type: biochemical; conditions: IMPDH II 0.00065 U/ml, non-linear curve fit
[2] = system: IMPDH; assay: Sensitivity of mycophenolic acid inhibition of IMPDH; type: biochemical
[3] = target: T1, IMPDH II; assay: IMPDH activity as a function of ligand-inhibitor conjugate, antibody and analyte concentration (HITACHI 717, NADH at 340 nm); type: biochemical; set-up: made in house; host or cells: E. coli
Experimental: One liter of an antibody reagent, or first reagent, was prepared as follows. Approximately 800 ml deionized water was dispensed into a container and 6.0 grams of ACES were added and dissolved. The pH was adjusted to 6.0 with 2N NaOH. Then 0.53 grams NAD were added and dissolved completely. Next 10 ml ascites anti-MPA monoclonal antibody was added. Then 0.95 grams sodium azide was added and dissolved, and finally 1.0 gram of SUTTOCIDE A (GAF Chemicals Corp.) was added and dissolved. The volume was adjusted to one liter with deionized water.
One liter of an enzyme reagent, or second reagent, was prepared as follows. Approximately 800 ml deionized water was dispensed into a container and 56.3 grams of NaTAPSO was added and completely dissolved. Then 81.6 grams of sodium acetate-3H2O were added and dissolved. Next, 1.15 grams of TCEP were added and dissolved. Next 0.319 grams of IMP were added and dissolved, then 2.23 grams of Na2EDTA were added and dissolved. Next 1.0 gram of SUTTOCIDE A was added and dissolved. The volume was adjusted to one liter with deionized water. Approximately 13.4 ml of recombinant human IMPDH-II were added (E. coli lysate) and dissolved completely in order to achieve a change in absorbance at 340 nm of 4400×10^−4 over 5 minutes at 37° C. Next 0.002 grams of ligand-inhibitor conjugate (MPA-MPA, Example 42) were added and dissolved.
Human plasma samples spiked with mycophenolic acid were assayed for MPA using the present invention. An HITACHI 717 analyzer (Roche Diagnostics Corp. Indianapolis) was programmed to dispense 3 μl of sample and 150 μl of antibody reagent into a 37° C. cuvette, which were then mixed and incubated for 5 minutes after which time 150 μl of enzyme reagent was added and mixed. The difference in absorbance at 340 nm was calculated from the initial addition of enzyme reagent to 5 minutes following enzyme reagent addition.
With sample set A, the reagents contained no antibody or ligand-inhibitor and produced maximum IMPDH activity. With sample set B, the enzyme reagent contained ligand inhibitor and was used to show the effect of ligand inhibitor on IMPDH activity.

[4] = target: IMPDH-I (Homo sapiens, UniProt P20839); conditions: read-out: Ki (IC50), J. Biol. Chem. 268, 27286-27290 (1993); cited from earlier work
[5] = target: T1, IMPDH II; assay: IC50 by slightly different method: enzyme rate on HITACHI 917 as in Examples 20 and 29, no antibody, saline sample; type: biochemical; set-up: made in house; host or cells: E. coli; conditions: values marked *: HITACHI 917 method
Experimental: One liter of an enzyme reagent, or second reagent, was prepared as follows. Approximately 800 ml deionized water was dispensed into a container and 168.8 grams of NaTAPSO was added and completely dissolved. Next, 1.15 grams of TCEP was dissolved. Next 31.4 grams of IMP was dissolved, then 2.23 grams of Na2EDTA were dissolved. Next 1.0 gram of SUTTOCIDE A was dissolved. The volume was adjusted to one liter with deionized water. Enough recombinant human IMPDH-II was added (as a 35% ammonium sulfate precipitate of an E. coli lysate supernatant) and dissolved completely in order to achieve a change in absorbance at 340 nm of 780×10^−4 over 5 minutes at 37° C. […]
(§1) An HITACHI 917 analyzer (Roche Diagnostics Corp., Indianapolis) was programmed to dispense 3 μl of sample and 150 μl of antibody reagent into a 37° C. cuvette, which were then mixed and incubated for 5 minutes after which time 150 μl of enzyme reagent was added and mixed. The rate at 340 nm (mA/min) was calculated during the period 3 minutes 13 seconds to 4 minutes 42 seconds (read window 29-34) following enzyme reagent addition.
One liter of a second reagent was prepared as follows. […] Enough recombinant human IMPDH-II was added (as a 35% ammonium sulfate precipitate of an E. coli lysate supernatant) and dissolved completely in order to achieve a change in absorbance at 340 nm of 3100×10^−4 over 5 minutes at 37° C. […]

[6] = target: T1, IMPDH II; assay: Homogeneous enzyme immunoassay with ligand-inhibitor conjugate (thyroxine and theophylline); type: biochemical; set-up: made in house; host or cells: E. coli; conditions: compared with MPA-theophylline
Experimental: as §1
Saline samples spiked with theophylline were assayed using the method of the present invention. Theophylline (Sigma Chemical) was first dissolved in saline (1 mg/10 ml) and then diluted to achieve concentrations of 0, 5, 10, 20, 40 and 50 μg/ml. An HITACHI 717 analyzer (Roche Diagnostics Corp., Indianapolis) was programmed to dispense 3 μl of sample and 150 μl of first reagent into a 37° C. cuvette, which were then mixed and incubated for 5 minutes, after which time 150 μl of second reagent was added and mixed. The difference in absorbance at 340 nm was calculated from the initial addition of the second reagent to 5 minutes following the second reagent addition.
J. Org. Chem. 61, 2236-2241, (1996).

Chain of IMPDH-I (P20839 whole entry): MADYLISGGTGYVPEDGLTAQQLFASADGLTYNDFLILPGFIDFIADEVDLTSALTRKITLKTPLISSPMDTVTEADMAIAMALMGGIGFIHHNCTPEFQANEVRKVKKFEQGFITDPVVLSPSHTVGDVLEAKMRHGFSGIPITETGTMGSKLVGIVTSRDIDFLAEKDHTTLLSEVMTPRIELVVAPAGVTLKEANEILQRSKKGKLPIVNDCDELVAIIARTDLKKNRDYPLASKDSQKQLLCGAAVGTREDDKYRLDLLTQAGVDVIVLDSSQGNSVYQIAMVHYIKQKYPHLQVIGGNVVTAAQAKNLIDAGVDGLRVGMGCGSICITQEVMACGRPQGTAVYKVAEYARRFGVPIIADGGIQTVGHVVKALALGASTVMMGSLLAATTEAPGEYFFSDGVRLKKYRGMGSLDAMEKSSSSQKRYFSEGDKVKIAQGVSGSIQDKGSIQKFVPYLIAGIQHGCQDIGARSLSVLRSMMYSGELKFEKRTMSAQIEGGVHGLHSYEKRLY

## 5′-[(phenytoin-3-butyramido)-isoprenyl]-MPA
[1]
  IC50: 0.088 µM

## 5′-[(gentamicin[C1a]-N^1-carbonyl-oxy)-isoprenyl]-MPA
[1]
  IC50: 0.66 µM

## COc1c(C)c2c(c(O)c1C/C=C(\C)CCC(=O)O)C(=O)OC2 [MPA, mycophenolic acid]
[2]
  sensitivity of mycophenolic acid inhibition: 10 to 20 nM
[3]; set A: sample MPA 5 μg/ml, no anti-MPA, no MPA—MPA
  ΔA × 10^−4 @ 340 nm: 1939 × 10^−4
[3]; set A: sample MPA 10 μg/ml, no anti-MPA, no MPA—MPA
  ΔA × 10^−4 @ 340 nm: 541 × 10^−4
[3]; set E: sample MPA 5 μg/ml, anti-MPA 1:100, no MPA—MPA
  ΔA × 10^−4 @ 340 nm: 4075 × 10^−4
[3]; set E: sample MPA 10 μg/ml, anti-MPA 1:100, no MPA—MPA
  ΔA × 10^−4 @ 340 nm: 3667 × 10^−4
[4]
  Ki: 0.037 µM

## MPA-isoprenyl alcohol [3B]
[1]
  IC50: 0.013 µM

## 5′-[(gentamicin[C1a]-N^1-terephthaloyl)-amino-isoprenyl]-MPA [U]
[1]
  IC50: 0.27 µM

## 5′-[(theophylline-8-butyramidoethylaminocarbonyloxy)-isoprenyl]-MPA [compound 20]
[5]
  IC50: 0.25 µM

## 5′-[(digoxigenin-3-yl)-oxymethylcarbonyl-DADOO-carbonylmethyl]-MPA [compound 26]
[1]
  IC50: 0.17 µM

## 5′-[(isoprenyloxycarbonylaminoethyleneamido)-thyroxine]-MPA [compound 11]
[6]
  sensitivity in an immunoassay: greater sensitivity
[5]
  IC50: 0.083 µM

## 5′-(digoxigenin-3-yl-β-amidomethyl)-MPA [16A]
[1]
  IC50: 0.17 µM

## MPA-isoprenyl alcohol [3A]
[1]
  IC50: 0.048 µM

## 5′-(digoxigenin-3-yl-β-amidomethyl)-MPA [16B]
[1]
  IC50: 0.068 µM
